Experimental data from patent US20260159536A1, “AKR1C3-ACTIVATED DNA ALKYLATING AGENT, AND MEDICAL APPLICATION THEREOF” (ASCENTAWITS PHARMACEUTICALS, LTD., priority 2021, published 2026).

Assay: in vitro
Details: for half-life at 5 µM: hepatocyte cytosol
Protocol: (1) Compound A for test, progesterone positive control, and 100 mM stock solutions of AST-3021 inhibitor were prepared and stored in the freezer (−10° C. to −30° C.).
1) Negative control group: at different time points (0 and 60 min), 30 μL/well of hepatocyte cytosol suspension containing 7.5 μM of sample for test was distributed in a 96-well plate. Three replicate wells were prepared in parallel.
2) Positive control group: at different time points (0, 5, 15, 30, 45 and 60 min), 30 μL/well of hepatocyte cytosol suspension containing 7.5 μM of the positive control was distributed in a 96-well plate. Three replicate wells were prepared in parallel.
3) Normal reaction group: at different time points (0, 5, 15, 30, 45 and 60 min), 30 μL/well of hepatocyte cytosol suspension containing 7.5 μM of sample for test was distributed in a 96-well plate. Three replicate wells were prepared in parallel.
4) Inhibition reaction group: at different time points (0, 5, 15, 30, 45 and 60 min), 30 μL/well of hepatocyte cytosol suspension containing […] of sample for test and 4.5 μM of the inhibitor was distributed in a 96-well plate. Three replicate wells were prepared in parallel.
6) 0 min samples: after 150 μL/well of acetonitrile containing the internal standard was added, then 15 μL/well of pre-heated NADPH working solution was added to the samples of normal reaction group, inhibition reaction group and positive control group, and 15 μL/well of pre-heated potassium phosphate buffer was added to the samples of negative control group.
7) Other samples (5, 15, 30, 45 and 60 min): for normal reaction group, inhibition reaction group and positive control group, 15 μL/well of pre-heated NADPH working solution was added to start the reaction; for negative control group, 15 μL/well of pre-heated potassium phosphate buffer was added. The reaction plates were then continued to incubate in a 37° C. water bath and the reactions were stopped by the addition of 150 μL/well of stop solution at the corresponding time points (5, 15, 30, 45 and 60 min).
The concentration of analyte in each sample was expressed as a peak area ratio (peak area analyte/peak areainternal standard), then the peak area ratio at 0 min was used as a reference to calculate the % Remaining at each time point of the incubation, and the ln logarithmic value of the % Remaining was linearly fitted to the incubation time and the half-life was calculated according to the following formula.
In the absence of AST-3021, 5 μM of progesterone was co-incubated with 2 mM of NADPH and 1 mg/mL of hepatocyte cytosol for 0-60 min as a positive control.

## O=[N+]([O-])c1ccc(C(OP(=O)(N2CC2)N2CC2)C(F)(F)F)cc1Oc1ccc(-c2ccc(F)cc2)c(F)c1 (racemic) [Compound A]
CD-1, mouse, Metabolic parameter t1/2, mouse, 2 mM NADPH, no AST-3021 (normal reaction / positive control group), 5 μM
  half-life at 5 µM: 8.52 h
CD-1, mouse, Metabolic parameter t1/2, mouse, negative control group (no NADPH, no AST-3021), 5 μM
  half-life at 5 µM: 3.72 h
CD-1, mouse, half-life, mouse, with NADPH and AST-3021
  half-life at 5 µM: 2.34 h
CD-1, mouse, half-life, mouse, with NADPH, no AST-3021
  half-life at 5 µM: 8.52 h
CD-1, mouse, with AST-3021 (AKR1C3 inhibitor), 3 μM, Metabolic parameter t1/2, mouse, 2 mM NADPH + 3 μM AST-3021 (inhibition reaction group), 5 μM
  half-life at 5 µM: 2.81 h
SD, rat, Metabolic parameter t1/2, rat, 2 mM NADPH, no AST-3021 (normal reaction / positive control group), 5 μM
  half-life at 5 µM: 2.18 h
SD, rat, Metabolic parameter t1/2, rat, negative control group (no NADPH, no AST-3021), 5 μM
  half-life at 5 µM: 1.83 h
SD, rat, with AST-3021 (AKR1C3 inhibitor), 3 μM, Metabolic parameter t1/2, rat, 2 mM NADPH + 3 μM AST-3021 (inhibition reaction group), 5 μM
  half-life at 5 µM: 1.69 h
Sprague-Dawley (SD), rat, half-life, with NADPH and AST-3021
  half-life at 5 µM: 1.69 h
Sprague-Dawley (SD), rat, half-life, with NADPH, no AST-3021
  half-life at 5 µM: 2.18 h
Cynomolgus (printed as 'machins'), monkey, Metabolic parameter t1/2, monkey, 2 mM NADPH, no AST-3021 (normal reaction / positive control group), 5 μM
  half-life at 5 µM: 2.53 h
Cynomolgus (printed as 'machins'), monkey, Metabolic parameter t1/2, monkey, negative control group (no NADPH, no AST-3021), 5 μM
  half-life at 5 µM: 2.87 h
human, 60 min, no NADPH, no AST-3021
  average % Remaining: 38.96%
human, 60 min, with NADPH, no AST-3021
  average % Remaining: 43.34%
human, Metabolic parameter t1/2, human, 2 mM NADPH, no AST-3021 (normal reaction / positive control group), 5 μM
  half-life at 5 µM: 0.831 h
human, Metabolic parameter t1/2, human, negative control group (no NADPH, no AST-3021), 5 μM
  half-life at 5 µM: 0.735 h
human, half-life, with NADPH and AST-3021
  half-life at 5 µM: 1.08 h
human, half-life, with NADPH, no AST-3021
  half-life at 5 µM: 0.831 h
human, with AST-3021 (AKR1C3 inhibitor), 3 µM, Metabolic parameter t1/2, human, 2 mM NADPH + 3 μM AST-3021 (inhibition reaction group), 5 μM
  half-life at 5 µM: 1.08 h
human, with NADPH and AST-3021
  % Remaining: 53.65%
human, 2 mM NADPH + 3 μM AST-3021 (inhibition reaction group), 5 μM
  Metabolic parameter k: 0.0107
human, 2 mM NADPH + 3 μM AST-3021 (inhibition reaction group), 5 μM, 0 min
  average % Remaining: 100.00%
human, 2 mM NADPH + 3 μM AST-3021 (inhibition reaction group), 5 μM, 5 min
  average % Remaining: 83.74%
human, 2 mM NADPH + 3 μM AST-3021 (inhibition reaction group), 5 μM, 15 min
  average % Remaining: 78.58%
human, 2 mM NADPH + 3 μM AST-3021 (inhibition reaction group), 5 μM, 30 min
  average % Remaining: 67.01%
human, 2 mM NADPH + 3 μM AST-3021 (inhibition reaction group), 5 μM, 45 min
  average % Remaining: 66.39%
human, 2 mM NADPH + 3 μM AST-3021 (inhibition reaction group), 5 μM, 60 min
  average % Remaining: 53.65%
human, 2 mM NADPH, no AST-3021 (normal reaction / positive control group), 5 μM
  Metabolic parameter k: 0.0139
human, 2 mM NADPH, no AST-3021 (normal reaction / positive control group), 5 μM, 0 min
  average % Remaining: 100.00%
human, 2 mM NADPH, no AST-3021 (normal reaction / positive control group), 5 μM, 5 min
  average % Remaining: 88.27%
human, 2 mM NADPH, no AST-3021 (normal reaction / positive control group), 5 μM, 15 min
  average % Remaining: 79.04%
human, 2 mM NADPH, no AST-3021 (normal reaction / positive control group), 5 μM, 30 min
  average % Remaining: 70.02%
human, 2 mM NADPH, no AST-3021 (normal reaction / positive control group), 5 μM, 45 min
  average % Remaining: 52.35%
human, 2 mM NADPH, no AST-3021 (normal reaction / positive control group), 5 μM, 60 min
  average % Remaining: 43.34%
human, negative control group (no NADPH, no AST-3021), 5 μM
  Metabolic parameter k: 0.0157
human, negative control group (no NADPH, no AST-3021), 5 μM, 0 min
  average % Remaining: 100.00%
human, negative control group (no NADPH, no AST-3021), 5 μM, 60 min
  average % Remaining: 38.96%
Machin (cynomolgus), monkey, with AST-3021 (AKR1C3 inhibitor), 3 µM, Metabolic parameter t1/2, monkey, 2 mM NADPH + 3 μM AST-3021 (inhibition reaction group), 5 μM
  half-life at 5 µM: 2.59 h
machins, monkey, half-life, with NADPH and AST-3021
  half-life at 5 µM: 2.59 h
machins, monkey, half-life, with NADPH, no AST-3021
  half-life at 5 µM: 2.53 h
monkey, 60 min, no NADPH, no AST-3021
  average % Remaining: 78.57%
monkey, 60 min, with NADPH, no AST-3021
  average % Remaining: 73.28%
monkey, with NADPH and AST-3021
  % Remaining: 69.52%
monkey, 2 mM NADPH + 3 μM AST-3021 (inhibition reaction group), 5 μM
  Metabolic parameter k: 0.0045
monkey, 2 mM NADPH + 3 μM AST-3021 (inhibition reaction group), 5 μM, 0 min
  average % Remaining: 100.00%
monkey, 2 mM NADPH + 3 μM AST-3021 (inhibition reaction group), 5 μM, 5 min
  average % Remaining: 96.83%
monkey, 2 mM NADPH + 3 μM AST-3021 (inhibition reaction group), 5 μM, 15 min
  average % Remaining: 101.19%
monkey, 2 mM NADPH + 3 μM AST-3021 (inhibition reaction group), 5 μM, 30 min
  average % Remaining: 90.97%
monkey, 2 mM NADPH + 3 μM AST-3021 (inhibition reaction group), 5 μM, 45 min
  average % Remaining: 88.36%
monkey, 2 mM NADPH + 3 μM AST-3021 (inhibition reaction group), 5 μM, 60 min
  average % Remaining: 69.52%
